Structures are written as SMILES. pIC50: −log10 of the molar value.

The test deals with T1, human HSL (Homo sapiens, UniProt Q05469).
T1 construct: fused on or other part: C-terminal His6 tag
T1 sequence (Q05469 1-1076): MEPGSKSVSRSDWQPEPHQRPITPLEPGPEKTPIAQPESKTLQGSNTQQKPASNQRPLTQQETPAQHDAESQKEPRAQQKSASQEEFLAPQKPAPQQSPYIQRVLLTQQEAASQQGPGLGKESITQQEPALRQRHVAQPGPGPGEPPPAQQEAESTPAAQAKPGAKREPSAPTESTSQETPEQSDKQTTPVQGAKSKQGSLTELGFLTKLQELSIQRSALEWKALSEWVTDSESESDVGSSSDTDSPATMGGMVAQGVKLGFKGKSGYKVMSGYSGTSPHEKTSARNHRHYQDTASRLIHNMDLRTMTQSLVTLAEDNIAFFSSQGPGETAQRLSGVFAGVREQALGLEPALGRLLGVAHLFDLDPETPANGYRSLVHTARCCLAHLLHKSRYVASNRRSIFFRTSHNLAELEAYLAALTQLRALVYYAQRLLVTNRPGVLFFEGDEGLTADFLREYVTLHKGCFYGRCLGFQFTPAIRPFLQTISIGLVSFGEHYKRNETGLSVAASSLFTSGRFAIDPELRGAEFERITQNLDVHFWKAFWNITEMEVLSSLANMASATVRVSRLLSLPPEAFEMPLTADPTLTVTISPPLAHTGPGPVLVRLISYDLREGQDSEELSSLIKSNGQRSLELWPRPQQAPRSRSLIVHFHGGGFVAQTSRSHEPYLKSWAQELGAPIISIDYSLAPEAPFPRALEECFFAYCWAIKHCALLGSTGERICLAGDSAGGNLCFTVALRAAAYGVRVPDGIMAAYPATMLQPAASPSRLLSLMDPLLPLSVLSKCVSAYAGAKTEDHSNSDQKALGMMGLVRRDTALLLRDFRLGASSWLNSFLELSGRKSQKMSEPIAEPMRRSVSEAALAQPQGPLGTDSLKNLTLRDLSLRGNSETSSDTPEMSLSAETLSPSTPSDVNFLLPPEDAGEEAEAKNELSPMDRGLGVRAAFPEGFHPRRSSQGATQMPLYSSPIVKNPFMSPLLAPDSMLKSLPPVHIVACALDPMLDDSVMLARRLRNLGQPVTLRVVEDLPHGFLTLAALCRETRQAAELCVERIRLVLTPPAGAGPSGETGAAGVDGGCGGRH
The test can be described thus: Human Hormone-Sensitive Lipase (HSL) enzyme inhibition assay (colorimetric, DMPT substrate). The test is classed as biochemical. The conditions noted are these: human full length HSL-His6, 2,3-dimercapto-1-propanol tributyrate substrate, 37° C. 20 minutes; read-out: HSL hum IC50. The protocol:
Production of Human full length Hormone Sensitive Lipase-His^6:
1) Cloning: cDNA was prepared from commercial human brain polyA+ RNA and used as a template in overlapping PCR to generate a full length human HSL ORF with a 3′-His6 tag. This full length insert was cloned into the pFast-BAC vector and the DNA-sequence of several single clones was verified. DNA from a correct full length clone with the 3′His6 tag was used to transform the E. coli strain DH10BAC. Resulting bacmid DNA was used to generate a titered baculovirus stock for protein generation. The sequence of the encoded HSL conforms to Swissprot entry Q05469, with the additional C-terminal His6-tag.
2) Protein purification: Culture: 5.5 L, High 5 cells expressing human full length HSL-His^6, 48 hr., containing 25 μM E-64. Cell count: […], 90% viable.
Cells were thawed. On ice, cells were suspended in Base Buffer containing 10% glycerol, 25 mM Tris-Cl, 300 mM NaCl, 10 mM imidazole, 10 mM 2-mercaptoethanol, 2 μg pepstatin/ml, 2 μg leupeptin/ml, 2 μg antipain/ml, pH 8.0 at 4° C. in a final volume of 475 ml with 3.75×10^7 cells/ml. […] was done at 3×30 sec., Lubrol PX was added to 0.2% final concentration followed by stirring for 15 min. at 4° C. and centrifugation at 25 k×g, 60 min., 4° C. Soluble proteins were mixed with 60 ml of pre-washed and equilibrated Ni-NTA Agarose (Qiagen 30210) followed by tumbling end-over-end, 45 min., 4° C., centrifugation 1000 rpm 5 min and letting resin settle 5 min. Supernatant was removed, the resin washed in the centrifuge vessel using 5 volumes of Base Buffer containing 0.2% Lubrol PX. Centrifugation was done again, then the supernatant discarded. The resin was poured onto a 0.8 μm membrane in a disposable filter unit (Nalge 450-0080), and washed with 5 volumes of Base Buffer containing 0.2% Lubrol PX. It was then washed with 30 volumes of Base Buffer containing 60 mM imidazole pH 7.5 at 4° C. The protein was eluated with 5 volumes of 25 mM Tris-Cl, 300 mM NaCl, 200 mM imidazole, 10 mM 2-mercaptoethanol, pH 7.5 at 4° C. by tumbling resin with buffer end-over-end, 30 min., 4° C. The resin was captured on a 0.2 μm membrane disposable filter unit (Millipore SCGP U02 RE) and the eluate collected in the reservoir. The eluate was concentrated using a 30 k MWCO centrifugal filter device (Sartorius Vivascience Vivacell 100, VC1022), to 20 ml. It was then dialyzed overnight at 4° C., two times against 2 L of 10% glycerol, 25 mM Tris-Cl, 300 mM NaCl, 0.2 mM EDTA, 0.2 mM DTT, pH 7.5 at 4° C. The protein was filtered using a 0.22 μm disposable filter unit (Millipore SCGP00525). The protein concentration was calculated from absorbance at 280 nm, using 280=0.67 cm-1 mg-1. Yield was 235 mg, total. The protein was stored at −80° C.
Human Hormone-Sensitive Lipase (HSL) enzyme inhibition assay:
HSL enzyme activity was measured by a colorimetric assay using 2,3-dimercapto-1-propanol tributyrate (Aldrich, St. Louis, Mo.) as a substrate. Typically, 1.5 mM 2,3-dimercapto-1-propanol tributyrate (DMPT) in 100 mM MOPS, pH 7.2, 0.2 mg/ml fatty acid-free BSA was prepared by sonication at 4° C. to homogenous suspension. Test compounds (2 mM stock in DMSO) were diluted 3 fold in series in DMSO. Compound solutions were diluted 24 fold in 1.5 mM DMPT containing solution and 18 ul per well was added to 384-well microplates (Corning Costar). Twelve microliters per well of human HSL (15 ug/ml) was added and the reaction mixture was incubated at 37° C. for 20 minutes. Six microliters of 12 mM dithio-bis-(2-nitrobenzoic acid) (DTNB) in DMSO plus 1.2% SDS and 0.6% Triton X-100 were added and the mixture was incubated at room temperature for 15 minutes. Product production was monitored by reading absorbance at 405 nm on an Envision Reader (PerkinElmer Life and Analytical Sciences, Shelton, Conn.).
The pIC50 is the IC50 on a negative log10 scale, so that one unit is a factor of ten. With `O=C1CC2(CCN1Cc1ccccc1)CCN(c1ccc(OC(F)(F)F)cc1)C2=O` (stereo not drawn) [Example 1, 8-Benzyl-2-(4-trifluoromethoxy-phenyl)-2,8-diaza-spiro[4.5]decane-1,7-dione], the pIC50 is 6.57.

As to `CCCN1CCC2(CCN(c3ccc(OC(F)(F)F)cc3)C2=O)CC1=O` (stereo not drawn) [Example 2, 8-Propyl-2-(4-trifluoromethoxy-phenyl)-2,8-diaza-spiro[4.5]decane-1,7-dione], the negative-log IC50 (pIC50) is 6.60.

For the compound `O=C1CC2(CCN(c3ccc(OC(F)(F)F)cc3)C2=O)CCN1S(=O)(=O)c1ccccc1Cl` (stereo not drawn) [Example 3, 8-(2-Chloro-benzenesulfonyl)-2-(4-trifluoromethoxy-phenyl)-2,8-diaza-spiro[4.5]decane-1,7-dione], the pIC50 was 7.52.

On to `CC(C)CS(=O)(=O)N1CCC2(CCN(c3ccc(OC(F)(F)F)cc3)C2=O)CC1=O` (stereo not drawn) [Example 4, 8-(2-Methyl-propane-1-sulfonyl)-2-(4-trifluoromethoxy-phenyl)-2,8-diaza-spiro[4.5]decane-1,7-dione], for which the pIC50 was 6.80.

Consider `CC(C)(C)CC(=O)N1CCC2(CCN(c3ccc(OC(F)(F)F)cc3)C2=O)CC1=O` (stereo not drawn) [Example 5, 8-(3,3-Dimethyl-butyryl)-2-(4-trifluoromethoxy-phenyl)-2,8-diaza-spiro[4.5]decane-1,7-dione], for which the pIC50 was 6.96.

On to `CN1CCC2(CCN(c3ccc(OC(F)(F)F)cc3)C2=O)CC1=O` (stereo not drawn) [Example 6, 8-Methyl-2-(4-trifluoromethoxy-phenyl)-2,8-diaza-spiro[4.5]decane-1,7-dione], for which the pIC50 was 5.22.

As for `CCN1CCC2(CCN(c3ccc(OC(F)(F)F)cc3)C2=O)CC1=O` (stereo not drawn) [Example 7, 8-Ethyl-2-(4-trifluoromethoxy-phenyl)-2,8-diaza-spiro[4.5]decane-1,7-dione], the pIC50 was 6.09.

For `CCCCN1CCC2(CCN(c3ccc(OC(F)(F)F)cc3)C2=O)CC1=O` (stereo not drawn) [Example 8, 8-Butyl-2-(4-trifluoromethoxy-phenyl)-2,8-diaza-spiro[4.5]decane-1,7-dione], the pIC50 was 7.00.

Regarding `CC(C)(C)CN1CCC2(CCN(c3ccc(OC(F)(F)F)cc3)C2=O)CC1=O` (stereo not drawn) [Example 9, 8-(2,2-Dimethyl-propyl)-2-(4-trifluoromethoxy-phenyl)-2,8-diaza-spiro[4.5]decane-1,7-dione], the pIC50 was 7.10.

Take `O=C1CC2(CCN(c3ccc(CC(F)(F)F)cc3)C2=O)CCN1S(=O)(=O)c1ccccc1Cl` (stereo not drawn) [Example 10, 8-(2-chlorophenylsulfonyl)-2-(4-(2,2,2-trifluoroethyl)phenyl)-2,8-diazaspiro[4.5]decane-1,7-dione]: the pIC50 was 7.52.

As for `CC(C)(C)CC(=O)N1CCC2(CCN(c3ccc(CC(F)(F)F)cc3)C2=O)CC1=O` (stereo not drawn) [Example 11, 8-(3,3-dimethylbutanoyl)-2-(4-(2,2,2-trifluoroethyl)phenyl)-2,8-diazaspiro[4.5]decane-1,7-dione], the pIC50 is 7.22.

With `CC(C)(C)CC(=O)N1CCC2(CCN(c3ccc(OCC(F)(F)F)cc3)C2=O)CC1=O` (stereo not drawn) [Example 12, 8-(3,3-dimethylbutanoyl)-2-(4-(2,2,2-trifluoroethoxy)phenyl)-2,8-diazaspiro[4.5]decane-1,7-dione], the negative-log IC50 (pIC50) was 6.85.
